The values that follow are results of earlier work, collected in patent publication EP2934488B1, “A PHARMACEUTICAL COMPOSITION CONTAINING CANDESARTAN CILEXETIL AND AMLODIPINE” (Adamed Pharma S.A., priority 2012, dated 2014).

Assay in series [1]: not given
This is another data set of the same source.

`CCOC(=O)C1=C(COCCN)NC(C)=C(C(=O)OC)C1c1ccccc1Cl` (racemic) [Amlodipine benzenesulfonate, 3-ethyl 5-methyl (4RS)-2-[(2-amino-ethoxy)-methyl]-6-methyl-1,4-dihydropyridine-3,5-dicarboxylate]: the solubility in water entry is “slightly soluble in water”. Moreover, in series [1] (in vivo), the absolute bioavailability was 64-90%.

On to `CCOc1nc2cccc(C(=O)O)c2n1Cc1ccc(-c2ccccc2-c2nnn[nH]2)cc1` [candesartan], for which the candesartan physiologically available in series [1] (candesartan included in commercial formulations, estimated) is given as 15-40%.
